Substitutions are numbered along the chain they refer to. Read-outs that look alike come from different tables or passages of the source.
Columns and labels:
mutant MGL = target: T1, mutant MGL (Homo sapiens, UniProt Q99685, L169S/L176S); assay: MGL ThermoFluor assay - mutant; type: binding
T1 construct: purified mutant MGL (mut-MGLL 11-313 L179S L186S)
T1 sequence (Q99685 1-303 L169S/L176S): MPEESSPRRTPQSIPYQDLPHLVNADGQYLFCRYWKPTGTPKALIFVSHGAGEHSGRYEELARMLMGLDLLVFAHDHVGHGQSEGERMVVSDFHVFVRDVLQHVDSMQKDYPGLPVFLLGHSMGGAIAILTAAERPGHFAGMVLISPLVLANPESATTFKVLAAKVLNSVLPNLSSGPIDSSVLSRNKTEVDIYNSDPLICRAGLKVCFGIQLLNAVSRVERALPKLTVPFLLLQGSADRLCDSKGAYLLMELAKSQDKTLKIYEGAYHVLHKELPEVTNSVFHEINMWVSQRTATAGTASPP
Description: The ThermoFluor (TF) assay is a 384-well plate-based binding assay that measures thermal stability of proteins^1,2. The experiments were carried out using instruments available from Johnson & Johnson Pharmaceutical Research & Development, LLC. TF dye used in all experiments was 1,8-ANS (Invitrogen: A-47). Final TF assay conditions used for MGL studies were 0.07 mg/ml of mutant MGL, 100 μM ANS, 200 mM NaCl, 0.001% Tween-20 in 50 mM PIPES (pH=7.0).
Screening compound plates contained 100% DMSO compound solutions at a single concentration. For follow-up concentration-response studies, compounds were arranged in a pre-dispensed plate (Greiner Bio-one: 781280), wherein compounds were serially diluted in 100% DMSO across 11 columns within a series. Columns 12 and 24 were used as DMSO reference and contained no compound. For both single and multiple compound concentration-repsonse experiments, the compound aliquots (46 nL) were robotically predispensed directly into 384-well black assay plates (Abgene: TF-0384/k) using the Hummingbird liquid handler. Following compound dispension, protein and dye solutions were added to achieve the final assay volume of 3 μL. The assay solutions were overlayed with 1 μl of silicone oil (Fluka, type DC 200: 85411) to prevent evaporation.
Bar-coded assay plates were robotically loaded onto a thermostatically controlled PCR-type thermal block and then heated from 40 to 90° C. degrees at a ramp-rate of 1° C./min for all experiments. Fluorescence was measured by continuous illumination with UV light (Hamamatsu LC6), supplied via fiber optics and filtered through a band-pass filter (380-400 nm; >6 OD cutoff). Fluorescence emission of the entire 384-well plate was detected by measuring light intensity using a CCD camera (Sensys, Roper Scientific) filtered to detect 500±25 nm, resulting in simultaneous and independent readings of all 384 wells. A single image with 20-sec exposure time was collected at each temperature, and the sum of the pixel intensity in a given area of the assay plate was recorded vs temperature and fit to standard equations to yield the Tm^1. • 1. Pantoliano, M. W., Petrella, E. C., Kwasnoski, J. D., Lobanov, V. S., Myslik, J., Graf, E., Carver, T., Asel, E., Springer, B. A., Lane, P., and Salemme, F. R. (2001) J Biomol Screen 6, 429-40. • 2. Matulis, D., Kranz, J. K., Salemme, F. R., and Todd, M. J. (2005) Biochemistry 44, 5258-66.
The Kd values for compounds of Formula (I) were determined from a fit of the equation to the concentration-response plot of the fractional activity as a function of Tm. For some experiments, quantitative NMR spectroscopy (qNMR) was used to measure concentration of the initial 100% DMSO compound solutions and, using the same fitting method, qKd values were determined

[1] = target: T2, purified wild type MGL (wt-MGLL 6H-11-313) (Homo sapiens, UniProt Q99685); assay: MGL enzyme activity assay (4MU-B cleavage), wild type MGL; type: biochemical; conditions: 10 μM 4MU-B, 5 nM enzyme, 37° C., read-out: MGL wild type inh IC50
T2 construct: purified wild type MGL (wt-MGLL 6H-11-313)
T2 sequence (Q99685 1-303): T1 sequence (Q99685 1-303 L169S/L176S) with S169L, S176L
Description: All rate-based assays were performed in black 384-well polypropylene PCR microplates (Abgene) in a total volume of 30 μL. Substrate 4-methylumbelliferyl butyrate (4MU-B; Sigma) and either purified mutant MGL (mut-MGLL 11-313 L179S L186S) or purified wild type MGL (wt-MGLL 6H-11-313) were diluted separately into 20 mM PIPES buffer (pH=7.0), containing 150 mM NaCl and 0.001% Tween 20. Compounds of Formula (I) were pre-dispensed (50 nL) into the assay plate using a Cartesian Hummingbird prior to adding 4MU-B (25 μL of 1.2× solution to a final concentration of 10 μM) followed by enzyme (5 μL of a 6× solution to a final concentration of 5 nM) to initiate the reaction. Final compound concentrations ranged from 17 to 0.0003 μM. The fluorescence change due to 4MU-B cleavage was monitored with excitation and emission wavelengths of 335 and 440 nm, respectively, and a bandwidth of 10 nm (Safire^2, Tecan) at 37° C. for 5 min.
The IC50 values for compounds of Formula (I) were determined using Excel from a fit of the equation to the concentration-response plot of the fractional activity as a function of inhibitor concentration.

MGL = target: T3, MGL (Rattus norvegicus, UniProt Q8R431); assay: 2-AG accumulation assay in rat brain homogenate; type: biochemical; conditions: compound @1 μM, read-out: Rat Brain 2AG % VehCntrl (%) @1 μM
T3 construct: one g rat brain was homogenized; from tissue; host or cells: rat brain homogenate
T3 sequence (Q8R431 1-303): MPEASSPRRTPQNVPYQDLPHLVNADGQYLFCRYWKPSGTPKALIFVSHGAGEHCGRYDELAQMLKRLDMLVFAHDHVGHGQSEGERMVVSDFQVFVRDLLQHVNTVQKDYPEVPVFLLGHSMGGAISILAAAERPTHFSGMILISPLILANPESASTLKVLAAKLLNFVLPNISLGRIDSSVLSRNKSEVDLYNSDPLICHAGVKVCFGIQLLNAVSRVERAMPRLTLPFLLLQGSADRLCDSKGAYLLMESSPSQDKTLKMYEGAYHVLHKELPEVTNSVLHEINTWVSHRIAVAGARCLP
Description: After a 15-min incubation time at 37° C., CaCl2 (final concentration=10 mM) was added and then incubated for 15 min at 37° C. in a total volume of 5 mL. The reactions were stopped with 6 mL organic solvent extraction solution of 2:1 chloroform/methanol. Accumulated 2-AG in the organic phase was measured by a HPLC/MS method, according to the following equation: percent vehicle=(2-AG accumulation in the presence of compound/2-AG accumulation in vehicle)×100.

[2] = 0.07 mg/ml mutant MGL, pH=7.0, read-out: MGL mutant ThermoFluor Kd
[3] = compound concentration measured by qNMR, read-out: MGL mutant ThermoFluor qKd (using qNMR conc.)

SMILES | Kd (mutant MGL; [2]) [nM] | IC50 [1] [nM] | 2-AG accumulation, percent of vehicle control at 1 µM (MGL) [%] | Kd (mutant MGL; [3]) [nM]
O=C(c1ccc(Cc2cccc(C(F)(F)F)c2)cc1)N1CC(C2CCN(C(=O)c3cscn3)CC2)C1 [Cpd 13, 1-(1,3-Thiazol-4-ylcarbonyl)-4-[1-({4-[3-(trifluoromethyl)benzyl]phenyl}carbonyl)azetidin-3-yl]piperidine] | 28 | < 5 | 335 | –
O=C(c1ccc2c(c1)[nH]c(=O)n2C1CCC(F)(F)CC1)N1CC(C2CCN(C(=O)c3nccs3)CC2)C1 [Cpd 101, 1-(4,4-Difluorocyclohexyl)-5-({3-[1-(1,3-thiazol-2-ylcarbonyl)piperidin-4-yl]azetidin-1-yl}carbonyl)-1,3-dihydro-2H-benzimidazol-2-one] | – | 104 | – | 3.9
O=C(c1ccc2c(c1)[nH]c(=O)n2-c1ccc(F)c(F)c1)N1CC(C2CCN(C(=O)c3nccs3)CC2)C1 [Cpd 98, 1-(3,4-Difluorophenyl)-5-({3-[1-(1,3-thiazol-2-ylcarbonyl)piperidin-4-yl]azetidin-1-yl}carbonyl)-1,3-dihydro-2H-benzimidazol-2-one] | – | 16.6 | – | 43.6
Cc1nc2cc(C(=O)N3CC(C4CCN(C(=O)c5nccs5)CC4)C3)ccc2n1-c1ccc(C(F)(F)F)cc1 [Cpd 89, 2-Methyl-5-({3-[1-(1,3-thiazol-2-ylcarbonyl)piperidin-4-yl]azetidin-1-yl}carbonyl)-1-[4-(trifluoromethyl)phenyl]-1H-benzimidazole] | – | 34.1 | – | 7.7
O=C(c1ccc2c(c1)[nH]c(=O)n2-c1ccccc1)N1CC(C2CCN(C(=O)c3nccs3)CC2)C1 [Cpd 96, 1-Phenyl-5-({3-[1-(1,3-thiazol-2-ylcarbonyl)piperidin-4-yl]azetidin-1-yl}carbonyl)-1,3-dihydro-2H-benzimidazol-2-one] | – | 78.1 | – | 24.7
Cc1nc2cc(C(=O)N3CC(C4CCN(C(=O)c5nccs5)CC4)C3)ccc2n1-c1ccccc1 [Cpd 86, 2-Methyl-1-phenyl-5-({3-[1-(1,3-thiazol-2-ylcarbonyl)piperidin-4-yl]azetidin-1-yl}carbonyl)-1H-benzimidazole] | – | 18.7 | – | 10.6
O=C(c1ccc2c(ccn2-c2ccc(F)c(F)c2)c1)N1CCC(C2CN(C(=O)c3nccs3)C2)CC1 [Cpd 78, 1-(3,4-Difluorophenyl)-5-({4-[1-(1,3-thiazol-2-ylcarbonyl)azetidin-3-yl]piperidin-1-yl}carbonyl)-1H-indole] | – | < 5 | – | 2.3

More lines, now with the values ahead:

Kd (mutant MGL; [2]) [nM] | IC50 [1] [nM] | 2-AG accumulation, percent of vehicle control at 1 µM (MGL) [%] | Kd (mutant MGL; [3]) [nM] | SMILES
3 | 12.5 | 457 | – | O=C(c1ccc(-c2ccc(C(F)(F)F)s2)cc1)N1CC(C2CCN(C(=O)c3nccs3)CC2)C1 [Cpd 18, 1-(1,3-Thiazol-2-ylcarbonyl)-4-[1-({4-[5-(trifluoromethyl)thiophen-2-yl]phenyl}carbonyl)azetidin-3-yl]piperidine]
– | 163 | – | 3.4 | Cc1nc2cc(C(=O)N3CC(C4CCN(C(=O)c5nccs5)CC4)C3)ccc2n1C1CCC(F)(F)CC1 [Cpd 92, 1-(4,4-Difluorocyclohexyl)-2-methyl-5-({3-[1-(1,3-thiazol-2-ylcarbonyl)piperidin-4-yl]azetidin-1-yl}carbonyl)-1H-benzimidazole]
– | 10 | – | 24.9 | O=C(c1cc2ccc(C(F)(F)F)cc2s1)N1CC(C2(O)CCN(C(=O)c3nccs3)CC2)C1 [Cpd 94, 1-(1,3-Thiazol-2-ylcarbonyl)-4-(1-{[6-(trifluoromethyl)-1-benzothiophen-2-yl]carbonyl}azetidin-3-yl)piperidin-4-ol]
– | < 5 | – | 1 | O=C(c1ccc(-c2cccc(C(F)(F)F)c2)cc1)N1CCC(C2CN(C(=O)c3nccs3)C2)CC1 [Cpd 48, 4-[1-(1,3-Thiazol-2-ylcarbonyl)azetidin-3-yl]-1-{[3′-(trifluoromethyl)biphenyl-4-yl]carbonyl}piperidine]
0.6 | 211 | – | 0.5 | Cc1c(C(=O)N2CCC(C3CN(C(=O)c4cscn4)C3)CC2)sc2cc(C(F)(F)F)ccc12 [Cpd 61]
– | 35.5 | – | 22.8 | O=C(c1ccc2c(c1)ncn2-c1ccc(F)c(F)c1)N1CC(C2CCN(C(=O)c3nccs3)CC2)C1 [Cpd 82, 1-(3,4-Difluorophenyl)-5-({3-[1-(1,3-thiazol-2-ylcarbonyl)piperidin-4-yl]azetidin-1-yl}carbonyl)-1H-benzimidazole]
– | 175 | – | 66.3 | O=C(c1ccc2c(c1)ncn2CC(F)(F)F)N1CC(C2CCN(C(=O)c3nccs3)CC2)C1 [Cpd 84, 5-({3-[1-(1,3-Thiazol-2-ylcarbonyl)piperidin-4-yl]azetidin-1-yl}carbonyl)-1-(2,2,2-trifluoroethyl)-1H-benzimidazole]
– | 31.6 | – | 7.5 | Cc1nc2cc(C(=O)N3CC(C4CCN(C(=O)c5nccs5)CC4)C3)ccc2n1-c1ccc(F)cc1 [Cpd 87, 1-(4-Fluorophenyl)-2-methyl-5-({3-[1-(1,3-thiazol-2-ylcarbonyl)piperidin-4-yl]azetidin-1-yl}carbonyl)-1H-benzimidazole]
